We go through 36 compounds from patent US6693123B2 (University of Pittsburgh, priority 1995, dated 2004).

Structures can show the parent of a compound that is named as a salt.

The first assay deals with T1, Rat brain protein farnesyltransferase (Rattus norvegicus, UniProt Q02293+Q04631).
T1 construct: The enzyme is purified according to Reiss, Y., et al., Cell, 62: 81-88 (1990), utilizing steps one through three; from tissue; host or cells: rat brain
The assay is described as follows: In vitro inhibition of protein farnesyltransferase, Amersham scintillation proximity assay with biotin-K Ras B fragment. Format: biochemical. The conditions noted are these: Inhibition of farnesyltransferase; compound at 1 × 10^−6 M (Table 2). The text has this: The ability of the compounds of the invention to inhibit protein farnesyltransferase or protein geranylgeranyltransferase can be measured according to the method of Moores, et al., J. Biol. Chem. 266: 14603 (1991) or the method of Vogt, et al., J. Biol. Chem. 270:660-664 (1995). In addition, procedures for determination of the inhibition of farnesylation of the oncogene protein Ras are described by Goldstein, et al., J. Biol. Chem., 266:15575-15578 (1991) and by Singh in U.S. Pat. No. 5,245,061.
In addition, in vitro inhibition of protein farnesyltransferase may be measured by the following procedure. Rat brain protein farnesyltransferase activity is measured using an Amersham Life Science commercial scintillation proximity assay kit and substituting a biotin-K Ras B fragment (biotin-[…]Ue-Met-CO2H), 0.1 mM final concentration, for the biotin-lamin substrate provided by Amersham. The enzyme is purified according to Reiss, Y., et al., Cell, 62: 81-88 (1990), utilizing steps one through three. […]
The % inhibition of protein farnesyltransferase was determined for representative compounds of the invention.
As a reminder, the % inhibition is the percentage by which the read-out fell short of the control. A lower % inhibition goes with a response near the control. With `CSCCC(NC(=O)c1ccc(C=Cc2cccnc2)cc1-c1ccccc1C)C(=O)NS(=O)(=O)c1ccc(C)cc1` (stereo not drawn) [Example 277, {4-[2-(Pyrid-3-yl)ethenyl]-2-(2-methylphenyl)benzoyl}methionine 4-Tolylsulfonamide], the “% inhibition at 1 × 10^−6 M” value came out at 98%. As for `CSCC[C@H](NC(=O)c1ccc(C=Cc2cccnc2)cc1-c1ccccc1C)C(=O)OCOC(C)=O` [Example 295], the “% inhibition at 1 × 10^−6 M” value was found to be 94%. As to `CSCC[C@H](NC(=O)c1ccc(C=Cc2cccnc2)cc1-c1ccccc1C)C(=O)OCOC(=O)C(C)(C)C` [Example 296], the “% inhibition at 1 × 10^−6 M” value was determined as 89%. Still for that read-out and setting: the value for `Cc1ccccc1-c1cc(COc2cccnc2)ccc1C(=O)N[C@@H](CCC(N)=O)C(=O)O` [Example 313, (S)-2-N-[4-(3-Pyridyloxymethyl)-2-(2-methyl)phenylbenzoyl]amino-4-(aminocarbonyl)butanoic Acid] was 94%; that for `CNC(=O)CC[C@H](NC(=O)c1ccc(COc2cccnc2)cc1-c1ccccc1C)C(=O)O` [Example 314, (S)-2-N-[4-(3-Pyridyloxymethyl)-2-(2-methylphenyl)benzoyl]amino-4-(N-methylaminocarbonyl)butanoic Acid] was 97%.

For `CCNC(=O)CC[C@H](NC(=O)c1ccc(COc2cccnc2)cc1-c1ccccc1C)C(=O)O` [Example 315, (S)-2-N-[4-(3-Pyridyloxymethyl)-2-(2-methylphenyl)benzoyl]amino-4-(N-ethylaminocarbonyl)butanoic Acid], the “% inhibition at 1 × 10^−6 M” value is reported as 93%.

Take `CSCCC(NC(=O)c1ccc(COc2cccnc2)cc1-c1ccccc1)C(=O)NS(=O)(=O)N1CCOCC1` (stereo not drawn) [Example 318, [4-(3-Pyridyloxymethyl)-2-phenylbenzoyl]methionine 1-Morpholinylsulfonimide]: the “% inhibition at 1 × 10^−6 M” value was found to be 98%. Same read-out and setting: the value for `CSCC[C@H](NC(=O)c1ccc(CSc2cccnc2)cc1-c1ccccc1C)C(=O)O` [Example 324] was 98%.

The same assay, now with this note: Inhibition of farnesyltransferase; compound at 1 × 10^−6 M (Table 2); read-out: % inhibition at 1 × 10^−6 M.
One may read the inhibition as how much of the control response was suppressed. Turning to `CCCC[C@H](NC(=O)c1ccc(COc2cccnc2)cc1-c1ccccc1)C(=O)O` [Example 244, N-[4-(3-Pyridyloxymethyl)-2-phenylbenzoyl]norleucine], the inhibition at 1 µM is 21%. Take `COCC[C@H](NC(=O)c1ccc(COc2cccnc2)cc1-c1ccccc1)C(=O)O` [Example 245]: the inhibition at 1 µM was 50%. On to `CSCC[C@@H](CC(=O)O)NC(=O)c1ccc(COc2cccnc2)cc1-c1ccccc1` [Example 248], for which the inhibition at 1 µM is 79%. On to `CSCC[C@H](NC(=O)c1ccc(COc2cccnc2)cc1-c1ccccc1)C(=O)NO` [Example 249, [4-(3-Pyridyloxymethyl)-2-phenylbenzoyl]methionine Hydroxamic Acid], for which the inhibition at 1 µM stood at 77%. In the case of `CSCC[C@H](NC(=O)c1ccc(COc2cccnc2)cc1-c1ccccc1)C(=O)NS(C)(=O)=O` [Example 250, [4-(3-Pyridyloxymethyl)-2-phenylbenzoyl]methionine Methylsulfonimide], the inhibition at 1 µM worked out at 96%. Regarding `CSCC[C@H](NC(=O)c1ccc(COc2cccnc2)cc1-c1ccccc1C)C(=O)NS(C)(=O)=O` [Example 252, [4-(3-Pyridyloxymethyl)-2-(2-methylphenyl)benzoyl]methionine Methylsulfonimide], the inhibition at 1 µM amounted to 98%. In the case of `CSCC[C@H](NC(=O)c1ccc(COc2cccnc2)cc1-c1ccccc1C)C(=O)NS(=O)(=O)c1ccccc1` [Example 253, [4-(3-Pyridyloxymethyl)-2-(2-methylphenyl)benzoyl]methionine Phenylsulfonimide], the inhibition at 1 µM was 99%. Consider `CSCC[C@H](NC(=O)c1ccc(C=Cc2cccnc2)cc1-c1ccccc1C)C(=O)O` [Example 276, {4-[2-(Pyrid-3-yl)ethenyl]-2-(2-methylphenyl)benzoyl}methionine Sodium Salt], for which the inhibition at 1 µM amounted to 98%. For `COc1ccncc1NCc1ccc(C(=O)N[C@@H](CCSC)C(=O)O)c(-c2ccccc2)c1` [Example 281, [4-(4-Methoxypyrid-3-ylaminomethyl)-2-phenylbenzoyl]methionine Sodium Salt], the inhibition at 1 µM amounted to 98%.

On to `CSCC[C@H](NC(=O)c1ccc(C(O)c2ccncc2)cc1-c1ccccc1)C(=O)O` (stereo partly drawn) [Example 298, [4-(4-Pyridylhydroxymethyl)-2-phenylbenzoyl]methionine Sodium Salt], for which the inhibition at 1 µM was 43%.

For the compound `COC(=O)[C@H](CCSC)NC(=O)c1ccc(NC(=O)c2cccnc2)cc1-c1ccccc1C` [Example 300, [4-(3-Pyridylcarbonylamino)-2-(2-methylphenyl)benzoyl]methionine Methyl Ester], the inhibition at 1 µM was 22%. The same measure, in the same setting: in the case of `CSCC[C@H](NC(=O)c1ccc(NC(=O)c2cccnc2)cc1-c1ccccc1C)C(=O)O` [Example 301, [4-(3-Pyridylcarbonylamino)-2-(2-methylphenyl)benzoyl]methionine] it was 98%.

As to `COC(=O)[C@H](CCSC)NC(=O)c1ccc(COc2cccnc2)cc1-c1ccccc1C` [Example 307, [4-(3-Pyridyloxymethyl)-2-(2-methylphenyl)benzoyl]methionine Methyl Ester], the inhibition at 1 µM is 82%. With `COC(=O)[C@H](CCSC)NC(=O)c1ccc(NCc2cccnc2)cc1-c1ccccc1C` [Example 308, [4-(3-Pyridylmethylamino)-2-(2-methylphenyl)benzoyl]methionine Methyl Ester], the inhibition at 1 µM was found to be 62%.

For `CSCC[C@H](NC(=O)c1ccc(NCc2cccnc2)cc1-c1ccccc1C)C(=O)O` [Example 309, [4-(3-Pyridylmethylamino)-2-(2-methylphenyl)benzoyl]methionine], the inhibition at 1 µM came out at 98%. Consider `Cc1ccccc1-c1cc(COc2cccnc2)ccc1C(=O)N[C@@H](CCS(C)(=O)=O)C(=O)O` [Example 311, N-[4-(3-Pyridyloxymethyl)-2-(2-methylphenyl)benzoyl]-2-amino-4-(methylsulfonyl)butanoic Acid], for which the inhibition at 1 µM is 97%. On to `NC(=O)CC[C@H](NC(=O)c1ccc(COc2cccnc2)cc1-c1ccccc1)C(=O)O` [Example 316, (S)-2-N-[4-(3-Pyridyloxymethyl)-2-phenylbenzoyl]amino-4-(aminocarbonyl)butanoic Acid], for which the inhibition at 1 µM was determined as 63%. Same read-out and setting: in the case of `CCCCc1cc(C(=O)N[C@@H](CCSC)C(=O)O)c(-c2ccccc2C)cc1COc1cccnc1` [Example 319, [4-(3-Pyridyloxymethyl)-2-(2-methylphenyl)-5-butylbenzoyl]methionine] it was 98%; in that of `CSCC[C@H](NC(=O)c1cc(CC(C)C)c(COc2cccnc2)cc1-c1ccccc1C)C(=O)O` [Example 320, [4-(3-Pyridyloxymethyl)-2-(2-methylphenyl)-5-isobutylbenzoyl]methionine], 93%; in that of `CSCC[C@H](NC(=O)c1ccc(CSc2cccnc2)cc1-c1ccccc1C)C(=O)NS(=O)(=O)c1ccccc1` [Example 325], 99%.

The same assay, now with this note: read-out: % inhibition at 1 × 10^−6 M.
`CSCC[C@H](NC(=O)c1ccc(COc2cccnc2)cc1-c1ccccc1)c1nnc(C(F)(F)F)[nH]1` [Example 272, N-[3-(Methylthio)-1-(2-trifluoromethyl-1H-1,3,4-triazol-5-yl)propyl]-4-(3-pyridyloxymethyl)-2-phenylbenzamide]: the inhibition at 1 µM was 96%.

Turning to `CSCC[C@H](NC(=O)c1ccc(/C=C/n2ccnc2)cc1-c1ccccc1C)C(=O)O` [Example 278, {4-[2-(1H-1-Imidazolyl)ethenyl]-2-(2-methylphenyl)benzoyl}methionine Sodium Salt], the inhibition at 1 µM was determined as 99%. Still for that read-out and setting: the value for `CSCC[C@H](NC(=O)c1ccc(CCn2ccnc2)cc1-c1ccccc1C)C(=O)O` [Example 279, {4-[2-(1H-1-Imidazolyl)ethyl]-2-(2-methylphenyl)benzoyl}methionine Sodium Salt] was 99%; that for `CSCC[C@H](NC(=O)c1ccc(CNc2cnccc2C)cc1-c1ccccc1)C(=O)O` [Example 280] was 98%. Take `CSCC[C@H](NC(=O)c1ccc(NC(=O)c2cnccc2C(F)(F)F)cc1-c1ccccc1)C(=O)O` [Example 282, [4-(4-Trifluoromethylpyrid-3-ylcarbonylamino)-2-phenylbenzoyl]methionine Sodium Salt]: the inhibition at 1 µM was 76%. Still for that read-out and setting: the value for `CSCC[C@H](NC(=O)c1ccc(C=Cc2cccnc2)cc1-c1ccccc1C)C(=O)OCCN(C)C` [Example 294, {4-[2-(Pyrid-3-yl)ethenyl]-2-(2-methylphenyl)benzoyl}methionine Dimethylaminoethyl Ester] was 98%.

Take `CSCC[C@H](NC(=O)c1ccc(C(O[Si](C)(C)C(C)(C)C)c2ccncc2)cc1-c1ccccc1)C(=O)O` (stereo partly drawn) [Example 297, [4-(4-Pyridyl-t-butyldimethylsilyloxymethyl)-2-phenylbenzoyl]methionine Sodium Salt]: the inhibition at 1 µM was determined as 65%. Consider `CSCC[C@H](NC(=O)c1ccc(COc2cccnc2)cc1-c1ccccc1C(F)(F)F)C(=O)O` [Example 304, [4-(3-Pyridyloxymethyl)-2-(2-trifluoromethylphenyl)benzoyl]methionine], for which the inhibition at 1 µM came out at 99%.
